According to the NIST ThermoML archive (doi:10.1021/je0301951):

Test: wn = mass fraction of the nth substance listed
Conditions: Liquid, w2 = 1

SMILES	binary diffusion coefficient (293 K) [m2/s]	binary diffusion coefficient (298 K) [m2/s]	binary diffusion coefficient (303 K) [m2/s]	binary diffusion coefficient (308 K) [m2/s]	binary diffusion coefficient (313 K) [m2/s]
O=C=O [carbon dioxide] + O	1.71e-09	1.9e-09	2.13e-09	2.47e-09	2.86e-09
[N-]=[N+]=O [nitrous oxide] + O	1.54e-09	1.8e-09	1.98e-09	2.29e-09	2.58e-09
